We go through five compounds from article PMC8868285, “Pharmacological Inhibition of Epac1 Averts Ferroptosis Cell Death by Preserving Mitochondrial Integrity” (Antioxidants, 2022).

Experiment [1] deals with HT-22 cells. As to the kind of experiment: Brightfield images of cell morphology. The experiment is classed as cell-based, mouse.
Experiment [2] has as its system isolated mitochondria from HT-22 cells. As to the kind of experiment: High-resolution respirometry (Oroboros) of isolated mitochondria. More on the design: species or system mouse. The protocol: Mitochondria were isolated from harvested HT-22 cells (4–8 × 10^7 cultivated in T75 flasks) using a semi-automated pump-controlled cell rupture system (PCC) (0.71 mL/min) with syringes (SGE, Trajan© Scientific, Ringwood, Australia) attached to a cell homogenizer (Isobiotech, EMBL, Heidelberg, Germany) (bead size of 10 μm suitable for HT-22 cells) and superimposed on a pump (ProSense B.V, Oosterhout, The Netherlands, #NE1000). Collected samples were centrifuged at 800 rpm for 10 min at 4 °C. The supernatant was further centrifuged at 9000× g for 10 min at 4 °C. The resulting pellet was the crude mitochondria. Finally, the mitochondria were suspended in an isolation buffer (HEPES 20 mM, sucrose 250 mM EDTA 3 mM, pH 7.5) for subsequent experiments. The whole procedure was executed on ice.
The protein concentration of isolated mitochondria was determined using the Pierce™ BCA Protein Assay Kit (Pierce™ BCA Protein Assay Kit, Thermo Scientific, Rockford, IL, USA, #23225). Respiration of the isolated mitochondria from HT-22 cells was analyzed using the high-resolution respirometry oxygraph O2K (Oroboros Systems, Innsbruck, Austria). The isolated mitochondria (200 μg) prepared as previously described, were treated with either CE3F4, ESI-05, ethanol, or DMSO as appropriate for 25 min, followed by mitochondrial respiration measurements. Mitochondrial state 1 was determined by continuous stirring at 750 rpm in 1 mL of MiR05 buffer (MgCl2 3 mM, lactobionic acid 60 mM, EGTA 0.5 mM taurine 20 mM, KH2PO4 10 mM, D-Sucrose 110 mM, HEPES 20 mM, BSA, essential fatty acid-free1 g/L, pH adjusted to 7.4). DatLab software (Oroboros Systems, Innsbruck, Austria) was used to record real-time oxygen flux per tissue mass (pmol O2. s^−1 × mg^−1) at 37 °C and to perform oxygen polarography. States were described as, State 2: a non-phosphorylating respiration state which was assessed by addition of complex-I linked substrates, 5 mM pyruvate (Sigma–Aldrich Chemie GmbH, Steinheim, Germany #P-2256), and 2 mM malate (Sigma–Aldrich Chemie GmbH, Steinheim, Germany, #374318); State 3: the oxidative-phosphorylation capacity (OXPHOS) state, of complex-I linked activity or basal respiration was achieved by adding a saturating concentration of 0.8 mM ADP (Sigma–Aldrich Chemie GmbH, Steinheim, Germany, #A5285), this allowed for calculation of ADP-coupled repiration; State 4: Achieved by subsequent addition of oligomycin 0.1 μM/mL (Sigma–Aldrich Chemie GmbH, Steinheim, Germany, #O4876) following state 3, oligomycin blocks the ATP-synthase, thereby inhibiting proton passage; State 3U: Was assessed by incremental steps of 1 μM addition of FCCP—theprotonophore carbonyl cyanide 4-(trifluoromethoxy) phenylhydrazone (Sigma–Aldrich Chemie GmbH, Steinheim, Germany, #C2920), this allowed the calculation of the reserve capacity of the Electron Transport Chain (ETC); Finally, sodium dithionite (DTT, Sigma–Aldrich Chemie GmbH, Steinheim, Germany, #15,795-3) was added to reduce all residual oxygen that was present in the chamber and to calibrate the oxygen content in the chamber. The O2 slope (pmol × (mL/s)) of isolated mitochondria was the oxygen concentration and also the initial derivate of the oxygen concentration—a derivative of oxygen consumption. Measurements were recorded in intervals of 2 s by using a background correction after calibration of the polarographic oxygen sensors.

Experiment [3] has as its system HT-22 cells. As to the kind of experiment: MTT cell viability assay. The experiment is classed as cell-based, mouse. The protocol:
(§1) Cell viability and metabolic activity of cells was first assessed using a colorimetric 3-(4,5-dimethylthiazol-2-yl)-2,5-diphenyltetrazolium Bromide (MTT) (Sigma–Aldrich Chemie GmbH, Steinheim, Germany, #M5655) reduction assay. Cells in a 96-well plate format (8–10,000 cells/well) were incubated with the MTT solution (0.5 mg/mL) for a maximum of 1 h at 37 °C. Afterward, the MTT-containing solution was entirely removed, and the 96-well plate was incubated at −80 °C for at least 2 h. To allow formazan to uniformly disperse in the medium, dimethyl sulfoxide (DMSO) (Sigma–Aldrich Chemie GmbH, Steinheim, Germany, #D8418, Lot# SHBH9942) was administered to the cells for 1 h at 37 °C with continuous shaking. The absorbance values were determined by Synergy™H1 (Bad Friedrichshall, Germany) Hybrid MultiMode Reader at 570 nm with a 630 nm reference filter. The absorbance values of untreated healthy cells or cells treated with DMSO 1% (used as a solvent for various pharmacological applications) were regarded as 100% of cell viability. […] HT-22 cells were treated with the following conditions: control condition (solvent), drug of interest, erastin, and pre- or co-treatment with erastin and drug of interest. Cells as appropriate were pre-treated for 30 min with the drug of interest before the addition of erastin. xCELLigence ®RTCA MP system (ACEA BIO, Amsterdam, The Netherlands) was used to measure cell impedance in real time. The xCELLigence ®RTCA MP system is a label-free real-time cell-based assay, suitable for continuous monitoring of alteration/modifications of the morphology of cells. Continuous cell monitoring was performed by using an E-plate 96 and the cellular impedance or cell resistance was assessed every 15 min for 24 h.
On the technique in general: Tetrazolium assays rely on reduction of a dye to a coloured formazan, in cell work by metabolically active cells.

The subject of experiment [4] is HT-22 cells. As to the kind of experiment: Extracellular flux analysis (Seahorse), oxygen consumption rate. The experiment is classed as cell-based, mouse. The protocol: Cellular Oxygen Consumption Rate (OCR) was measured by using an XFe96 extracellular flux analyzer (Seahorse Bioscience, Billerica, MA, USA) which also entailed the mitochondrial stress test as described previously. HT-22 cells (10,000 cells/well) were seeded onto the XFe96-well cell culture microplate and incubated at 37 °C, 5% CO2. 24 h before the assay, the growth medium was replaced with a fresh medium containing either DMSO 1%, erastin 1 µM, CE3F4 alone, ESI-05 alone or a co-treatment of erastin with either CE3F4 or ESI-05. Cells in 180 μL of assay non-buffered DMEM medium supplemented with 2 mM glutamine, 4.5 g/L glucose and 1 mM pyruvate, pH 7.35 were incubated for 1 h in a CO2 free incubator at 37 °C. Basal respiration was measured before injecting the inhibitors that included; oligomycin (4 μM; port A)—an ATP synthase inhibitor; 2,4-dinitrophenol (DNP) (Sigma–Aldrich Chemie GmbH, Steinheim, Germany, #34334) (50 μM; port B)—a mitochondrial oxidative phosphorylation uncoupler; and rotenone (Sigma–Aldrich Chemie GmbH, Steinheim, Germany, #R8875) together with antimycin A (Sigma–Aldrich Chemie GmbH, Steinheim, Germany, #A8674) 0.1 μM and 1 μM; port C)—complex I and complex III inhibitors. By using the BCA assay, OCR measurements were normalized to the protein amount in every well. Three independent experiments with six wells per condition were performed, and a one-way ANOVA test was used to determine statistical significance among different groups.

For a further experiment, the system named is traumatic brain injury. The arrangement: method as in PMID 29740274. The note with it: cited from earlier work.
The test system of the next experiment is Epac2. The note with it: ESI-05, Epac2 inhibitor; cited from earlier work.
The subject of experiment [5] is secondary brain injury induced by intracerebral hemorrhage. More on the design: method as in PMID 30607901. The note with it: cited from earlier work.
In experiment [6] the test system is retinal glial cells (RGC). The arrangement: method as in PMID 31918438. The note with it: cited from earlier work.
The test system of experiment [7] is HT-22 cells. As to the kind of experiment: Cell death assessment, FACS analysis of PI staining. The note with it: erastin 1 μM alone.
Procedure: (§2) Flow cytometry analysis using the CytoFLEXS benchtop flow cytometer (Beckman Coulter Life Sciences, Indianapolis, IN, USA) was used to evaluate intracellular parameters that are associated with not only oxidative stress but also mitochondrial dysfunction, and cell death. HT-22 cells (40,000 cells/well) seeded in 24-well plates were treated with various conditions. Treatment groups included: control condition (DMSO 1%), erastin 1 µM or 1.5 µM, CE3F4 100 µM, and co-treatment of erastin and CE3F4. Three separate wells were analyzed for each condition and the same number of counts (10,000/well) were measured by flow cytometry. At least three independent experiments were performed, and the Kaluza Analysis 1.5 software was employed for quantification of data.
The amount of cell death after stimulation with erastin for 16–17 h was assessed by incubating trypsonized HT-22 cell suspension with propidium iodide (PI) (Invitrogen, Oregon City, OR, USA, #V13242, Lot #2008168) in a binding buffer. Incubation with the dye was for 30 min at RT. Fluorescence was detected at 494/518 and 535/617 for FITC and PI respectively.
Experiment [8] concerns HT-22 cells. As to the kind of experiment: xCELLigence real-time cell impedance measurement. The note with it: erastin alone, dose response. The experiment is classed as cell-based, mouse. The protocol: as §1, with “Cells as appropriate were pre-treated for 30 min with the drug of interest before the addition of erastin. xCELLigence ®RTCA MP system (ACEA BIO, Amsterdam, The Netherlands) was used to measure cell impedance in real time. The xCELLigence ®RTCA MP system is a label-free real-time cell-based assay, suitable for continuous monitoring of alteration/modifications of the morphology of cells.” left out

The test system of experiment [9] is HT-22 cells. As to the kind of experiment: Mitochondrial superoxide, MitoSOX FACS.
Procedure: as §2
MitoSOX dye (Invitrogen, Oregon City, OR, USA, #M36008, Lot#1924466) was used to evaluate mitochondrial ROS. The MitoSOX dye is able to permeate live cells and also selectively target mitochondria where it is swiftly oxidized by superoxides but not by other reactive oxygen species. […] Incubation of HT-22 cells with MitoSOX™ 1.25 μM dye was done for 30 min at 37 °C. Fluorescence excitation and detection were done at 488 nm and 690/50 nm respectively.
Experiment [10] has as its system HT-22 cells. As to the kind of experiment: Soluble ROS, CM-DCF FACS. The experiment is classed as cell-based, mouse. The procedure: Soluble ROS was evaluated by CM-DCF fluorescent dye (Invitrogen, Oregon City, OR, USA). CM-DCF passively diffuses into cells, and reacts with glutathione and other thiols following cleavage by intracellular esterases, which in turn exposes the thiol-reactive chloromethyl group. The oxidation that follows results in a fluorescent adduct that is ensnared within the cell. The higher the fluorescence, the more cellular ROS is produced in the cells.

Experiment [11] has as its system HT-22 cells. As to the kind of experiment: Lipid peroxidation, BODIPY FACS. The note with it: erastin 1 μM alone, 4 h.
Procedure: as §2
The staining dye BODIPY 2 μM (Invitrogen, Karlsruhe, Germany, # D3861, Lot # 1890330) was used to estimate lipid peroxidation. Erastin treatment was done for 4 h. HT-22 cells were then stained for 30 min at RT, followed by a one-time wash with PBS and finally analyzed. Fluorescence excitation and detection were done at 488 nm and 530 nm respectively.
For experiment [12], the system named is HT-22 cells. As to the kind of experiment: Mitochondrial membrane potential, TMRE FACS.
Procedure: as §2
Staining with TMRE™ dye (tetramethylrhodamine-ethyl ester; Invitrogen, Oregon City, OR, USA, #T669) was used to determine loss of mitochondrial membrane potential (MMP) (ΔΨm). […] Collected cells were incubated for 20 min with TMRE 0.2 μM at 37 °C. Fluorescence excitation and detection were done at 488 nm 690/50 nm respectively.
The subject of experiment [13] is HT-22 cells. As to the kind of experiment: Mitochondrial morphology (MitoTracker Deep Red, categories I-III). The note with it: erastin 1 μM alone. It is filed as cell-based, mouse. The protocol:
Mitochondrial morphology was assessed using imaging of HT-22 cells stained with MitoTracker™Deep Red FM (Invitrogen, Oregon City, OR, USA, #M22426). Cells were treated with either erastin 1 µM, CE3F4 100 µM, or co-treated with erastin 1 µM and CE3F4 100 μM for 18 h. After the treatment, cells were incubated with 200 nM MitoTracker™Deep Red FM for 30 min at 37 °C. Untreated cells were included as controls. 4% paraformaldehyde (PFA) was used for fixation and detection of the MitoTracker fluorescence was achieved by 620 nm (excitation) and 700 ± 75 nm (detection). 500 cells per condition were counted and grouped into three different categories, based on their mitochondrial morphology/shape. The analysis and categorization of mitochondria was done by an investigator without previous knowledge of the various experimental conditions. Category I included healthy cells with mitochondria that form an elongated tubular network that is distributed equally throughout the cytosol. It could also include short mitochondria, but distributed in the cytosol. On the other hand, Category II included cells which contained large, and fragmented/granulated mitochondria around the nucleus. […] Category III represented damaged and dying cells with observed small rounded mitochondria of varying sizes and in proximity to the nucleus.. At least three independent experiments were performed.

Another experiment relates to Epac. The arrangement: method as in BioLog, Cat.No. C 041. The note with it: no literature reference printed; ref BioLog, Cat.No. C 041; cited from earlier work.

The term IC50 denotes the point on the concentration scale where inhibition reaches its midpoint. In the case of `Cc1ccc(S(=O)(=O)c2c(C)cc(C)cc2C)cc1` [ESI-05], the “neuroprotection against erastin-induced ferroptosis (bright-field microscopy images)” value in the experiment on HT-22 cells [1] (ESI-05 30 μM + erastin 1 μM) is “did not mediate neuroprotection”. Further, the “respiration rate after inhibition of ETC complex V (state 4)” value in experiment [2] (10 μM ESI-05) was “significantly increased”. For the same compound, the mitochondrial respiration entry in [2] (ESI-05 30 μM) is on record as “does not affect mitochondria respiration”. In addition, in the experiment with HT-22 cells [3] (100 μM ESI-05 with lower concentrations of erastin), the “neuroprotection against erastin-induced ferroptosis (MTT)” value (“neuroprotection … (MTT)” below) is on record as “did not mediate neuroprotection”. The “neuroprotection … (MTT)” value in the experiment with HT-22 cells [3] (ESI-05 3–30 μM) is on record as “did not mediate neuroprotection”. Moreover, the “mitochondrial respiration (OCR)” value in the experiment on HT-22 cells [4] (30 μM ESI-05 + erastin 1 μM vs erastin alone) is given as “did not induce any significant difference”. Also, in the experiment with traumatic brain injury, the “neural cell apoptosis after traumatic brain injury” value is recorded as “decreased neural cell apoptosis” and the “neurological deficits after traumatic brain injury” value is on record as “improved other neurological deficits”. For the same compound, the IC50 in the experiment on Epac2 was 400 nM. In [5], the “secondary brain injury induced by intracerebral hemorrhage” value is listed as “suppressed secondary brain injury”.
Consider `CC(C)(C)c1cc(C(=O)/C(C#N)=N/Nc2cccc(Cl)c2)no1` [ESI-09], for which, in experiment [6], the “effect on RGC” value is “neuroprotective”. Also, the “neuroprotection … (MTT)” value in the experiment with HT-22 cells [3] (ESI-09, 30 μM) was “dose-dependent neuroprotection”.
On to `CO[C@@H]1[C@@H]2OP(=O)(OCOC(C)=O)OC[C@H]2O[C@H]1n1c(Sc2ccc(Cl)cc2)nc2c(N)ncnc21` (stereo partly shown) [8-pCPT-2-O-Me-cAMP-AM], for which the “effect on RGC” value in [6] is “neurotoxic effects”.
Turning to `CCOc1ccccc1-n1c(C(C)N2CCN(C(=O)COc3ccc(Cl)cc3)CC2)nc2ccccc2c1=O` (stereo not shown) [erastin], in the experiment on HT-22 cells [7], the “cell death (PI staining)” value is recorded as “augmented cell death”. Also, the “cell death (real-time cell impedance)” value in the experiment with HT-22 cells [8] is recorded as “dose-dependent cell death”. Further, the cell morphology result in the experiment on HT-22 cells [1] (erastin 1 μM alone) is on record as “marked alteration in cell morphology”. The mitochondrial superoxide levels result in the experiment with HT-22 cells [9] (erastin 1 μM alone) is “significant increase and shift towards high ROS levels”; in the experiment with HT-22 cells [9] (erastin 1.5 μM alone), “significant increase and shift towards high ROS levels”. In addition, the “ROS level (CM-DCF)” value in the experiment with HT-22 cells [10] (erastin 1 μM alone) and in the experiment on HT-22 cells [10] (erastin 1.5 μM alone) was “significantly increased” in each case. Moreover, the lipid peroxidation entry in the experiment on HT-22 cells [11] is given as “increased”. Moreover, in the experiment on HT-22 cells [3] (erastin alone, dose response), the “cell death (MTT cell viability)” value is reported as “dose-dependent cell death”. In addition, the “mitochondrial respiration (OCR)” value with HT-22 cells [4] (erastin 1 μM vs untreated or solvent-treated controls) is on record as “significant decrease in mitochondrial respiration”. The “mitochondrial membrane potential (ΔΨm)” value in the experiment on HT-22 cells [12] (erastin 1 μM alone) and in the experiment on HT-22 cells [12] (erastin 1.5 μM alone) was “significant loss of ΔΨm” each time. Moreover, the mitochondrial morphology result in the experiment with HT-22 cells [13] is recorded as “induced pronounced mitochondrial fragmentation”.
For orientation: AC50 means the midpoint of the concentration-response curve, whichever way the signal moves. For `CO[C@@H]1[C@@H]2OP(=O)(O)OC[C@H]2O[C@H]1n1c(Sc2ccc(Cl)cc2)nc2c(N)ncnc21` [8-PCPT-2-O-Me-cAMP], the AC50 with Epac is 1800 nM. Further, in the experiment on HT-22 cells [3] (8-pCPT 10–100 μM), the “neuroprotection … (MTT)” value is “did not mediate neuroprotection”.
